Values belong to the compound of their own block, whether it stands above or below them.
Legend:
[1] = LogP determination (1-octanol/PBS partition, UV-vis); format: physicochemical; settings: for logP: 1-octanol/PBS, pH 7.4, 1-octanol/PBS pH 7.4, read-out: Experimental LogP
Procedure: LogP was determined as previously described. Briefly, solutions of each APF were prepared in 1-octanol, and UV-vis spectra were acquired to determine the λmax. After having placed 2.5 mL of each solution in 10 mL conical centrifuge tubes, PBS was added (2.5 mL, pH 7.4) and the biphasic system was mixed using a vortex mixer (VELP Scientifica, Usmate Velate MB, Italy) followed by centrifugation (2000× g, 5 min). Then, the octanol phase absorption was measured at λmax. The partition coefficient Ko/w was calculated according to the following equation:Ko/w = [APF]oct/[APF]PBS = […] where Ai is the initial measured absorbance in octanol, pre-extraction, and Af is the final measured absorbance in octanol, post-extraction.

[2] = tested on: human dermal fibroblasts (HDF); assay: MTT cell viability assay, HDF; format: cell-based; settings: Fibroblast, 72 h
Procedure: (§1) The human non-small cell lung cancer (NSCLC) and Human Dermal Fibroblasts (HDF) cell lines were all obtained from the American Type Culture Collection (ATCC). The H1975 (CRL-5908™) cell line was grown in RPMI 1640 medium (ECB2000) while the A549 (CCL-185™) and HDF were grown in complete DMEM medium (ECM0095) All cultures were supplemented with 10% fetal bovine serum (FBS), 2 mM L-glutamine, 100 U/mL penicillin, and 100 µg/mL streptomycin,. All cell lines were routinely maintained in 75 cm^2 flasks in a cell incubator at 37 °C, 5% CO2, and 95% relative humidity. The cell cultures were detached by trypsinization with 0.5% trypsin in PBS containing 0.025% EDTA. All cell culture reagents were supplied by Euroclone (Milan, Italy).
(§2) The number of metabolically active cells, and thus cell viability, was assessed by a 3-(4,5-dimethylthiazol-2-yl)-2,5-diphenyltetrazolium bromide (MTT) assay as previously described. The NSCLC cell lines (A549 and H1975) and HDF were seeded in 96-well plates to reach 50% confluence at 24 h; then, the medium was removed and replaced with 0.2 mL of fresh culture medium containing increasing compound concentrations (0–160 µM). After 72 h, the medium from each well was removed and replaced with fresh medium supplemented with MTT at a final concentration of 200 µg/mL. After incubation for 4 h at 37 °C, 0.2 mL of DMSO was added to each well followed by multiwell shaking for 4 min. The absorbance was read on a multiwell scanning microplate reader (BioTek Synergy HT MicroPlate Reader Spectrophotometer, BioTek Instruments Inc., Winooski, VT, USA) at 570 nm using the extraction buffer as a blank. The optical density in the control group (untreated cells) was considered as 100% viability. The relative cell viability (%) was calculated as (OD570 of treated samples/OD570 of untreated samples) × 100. Dose-dependent curves were therefore generated for the cytotoxic studies. The 50% inhibiting concentration (IC50) was determined by non-linear regression analysis with a three-parameter fit by utilizing SigmaPlot 12.0 Software, USA, Systat Software, Inc. SigmaPlot for Windows. Each experiment was performed at least five times in triplicate.

A549 NSCLC cells = assay: MTT cell viability assay, A549; format: cell-based, human; settings: for IC50: A549, 72 h, MTT; for SI (Selectivity Index): IC50 HDF / IC50 A549
Procedure: as §1, §2

H1975 NSCLC cells = assay: MTT cell viability assay, H1975; format: cell-based, human; settings: for IC50: H1975, 72 h, MTT; for SI (Selectivity Index): IC50 HDF / IC50 H1975
Procedure: as §1, §2

H1975 cells [3] = assay: Annexin V-FITC/PI apoptosis flow cytometry, H1975; format: cell-based, human
Procedure: (§3) Apoptosis was analyzed by flow cytometry using an Annexin V-FITC apoptosis detection kit (Biolegend, San Diego, CA, USA), according to the manufacturer’s instructions. A549, H1975, and HDF cells were treated with […] concentrations of APF-1 (1.5 and 3 µM). […] Briefly, control and treated cells were trypsinized, washed twice with ice-cold PBS, and resuspended in 1X Annexin binding buffer at a final concentration of 1.0 × 10^6 cell/mL. A total of 5 µL Annexin V-FITC and 10 µL Propidium Iodide (PI) were added to the cell suspension and the mixture was incubated for 15 min at rt in the dark. Samples were analyzed using the Guava EasyCyte flow cytometer (Merk-Millipore, Louis Missouri, USA). A total of 5000 events were acquired for each sample. Annexin V-FITC was detected as a green fluorescence (λex = 488 nm; λem = 516 nm) and PI was detected as a red fluorescence (λex = 535 nm; λem = 617 nm). Early apoptosis is defined by Annexin V+/PI− staining, late apoptosis is defined by Annexin V+/PI+ staining, and necrosis is defined by Annexin V−/PI+ staining.

A549 cells [4] = assay: Annexin V-FITC/PI apoptosis flow cytometry, A549; format: cell-based, human
Procedure: as §3

[5] = Annexin V-FITC/PI apoptosis flow cytometry, HDF; format: cell-based, human; settings: human, HDF cells, HDF, 24 h, read-out: live/viable (Annexin V−PI−) cells
Procedure: as §3

HDF cells [6] = assay: Annexin V-FITC/PI apoptosis flow cytometry, HDF; format: cell-based, human
Procedure: as §3

H1975 cells [7] = assay: Cell cycle analysis (PI, flow cytometry), H1975; format: cell-based, human; settings: H1975, 3 µM, 24 h
Procedure: (§4) Cell cycle analyses were performed by using a Guava easyCyte flow cytometer (Merk-Millipore, MA, USA) and the DNA content was determined by propidium iodide (PI) method as previously described. Briefly, A549, H1975, and HDF were treated with APF-1 at 1.5 and 3 µM concentrations for 24 h. Cells were harvested, washed twice with cold PBS, and fixed with 70% ice-cold ethanol and kept at […] for 2 h. The fixed cells were centrifugated at 4 °C and suspended in a master mix solution containing PBS, PI (40 µg/mL), and RNase (100 µg/mL) for 30 min at 37 °C in the dark. Samples were run through the Guava easyCyte flow cytometer set to internal cell cycle analysis protocol and 5000 cells per sample were measured. The percentage of cell cycle phases (G0/G1, S, and G2/M) was quantified using MultiCycle AV Cell Cycle in FCS Express 7 software (DeNovo Software, Pasadena, CA, USA). The experiment was performed three times in triplicate.

A549 cells [8] = assay: Cell cycle analysis (PI, flow cytometry), A549; format: cell-based, human; settings: 24 h
Procedure: as §4

HDF cells [9] = assay: Cell cycle analysis (PI, flow cytometry), HDF; format: cell-based, human; settings: 1.5 and 3 µM, 24 h
Procedure: as §4

[10] = tested on: p21^waf1/cip1 protein level in A549 cells; assay: Western blot of p21 expression, A549; format: cell-based, human; settings: A549, higher APF-1 concentration (3 µM), 24 h
Procedure: (§5) Analysis of cell extracts (20 µg total proteins) was performed using SDS-PAGE 12% (Bio-Rad Laboratories, Hercules, CA, USA). Electrophoresis was carried out under reducing conditions, where uniformly negatively charged proteins move according to their mass. The proteins were then transferred to a PVDF membrane using the Trans-Blot Turbo instrument (Bio-Rad Laboratories, USA), after which the membrane was blocked with Every Blot Blocking Buffer (Bio-Rad Laboratories, USA). P21 protein levels were analyzed by Western blotting using a specific rabbit monoclonal primary antibody that specifically recognizes p21 protein (ab109199, Cambridge, MA, USA), and a secondary antibody anti-rabbit HRP (TA130023, OriGene Technologies, Rockville, MD 20850, USA) and detected by chemiluminescence using the Chemidoc device (Bio-Rad Laboratories, USA). […] GADPH protein levels were analyzed by Western blotting using a specific rabbit monoclonal primary antibody that specifically recognizes this protein (ARC0205, catalog number MA535235, Thermo Scientific, Waltham, MA, USA) and secondary antibody anti-rabbit HRP (TA130023, OriGene Technologies, Rockville, MD 20850, USA), also in this case detected by chemiluminescence with the Chemidoc instrument (Bio-Rad Laboratories, USA).

[11] = tested on: p21^waf1/cip1 protein level in H1975 cells; assay: Western blot of p21 expression, H1975; format: cell-based, human; settings: 24 h
Procedure: as §5

[12] = tested on: p21 expression in HDF cell line; assay: Western blot of p21 expression, HDF; format: cell-based, human; settings: APF-1 treatment, 24 h
Procedure: as §5

advanced NSCLC = tested on: advanced NSCLC; design: method as in PMID 12177774, PMID 17912235, PMID 36674503; settings: treatment of advanced NSCLC; cited from earlier work

SMILES: Nc1ccc(Oc2ccc3oc(-c4ccccc4)cc(=O)c3c2)cc1 [APF-2, 6-(4-aminophenoxy)-2-(phenyl)-4H-chromen-4-one]
Experimental LogP ([1]; 1-octanol/PBS pH 7.4): 2.1 ± 0.3
logP [1]: 2.3
IC50 [2]: > 160 µM
IC50 (A549 NSCLC cells; Homo sapiens): 22 ± 3 µM
SI (Selectivity Index) (A549 NSCLC cells): >8
IC50 (H1975 NSCLC cells; Homo sapiens, NCI-H1975, 72 h): 50 ± 5 µM
SI (Selectivity Index) (H1975 NSCLC cells): >3

SMILES: Nc1ccc(Oc2ccc3c(=O)cc(-c4cccc(Oc5ccccc5)c4)oc3c2)cc1 [APF-3, 7-(4-aminophenoxy)-2-(3′-phenoxy)phenyl-4H-chromen-4-one]
logP [1]: 3.3 ± 0.2
IC50 [2]: 80 ± 3 µM
IC50 (A549 NSCLC cells; Homo sapiens): 33 ± 2 µM
SI (Selectivity Index) (A549 NSCLC cells): 2
IC50 (H1975 NSCLC cells; Homo sapiens, NCI-H1975, 72 h): 40 ± 4 µM
SI (Selectivity Index) (H1975 NSCLC cells): 2

SMILES: Nc1ccc(Oc2cccc3oc(-c4cccc(Oc5ccccc5)c4)cc(=O)c23)cc1 [APF-4, 5-(4-aminophenoxy)-2-(3′-phenoxy)phenyl-4H-chromen-4-one]
logP [1]: 2.9 ± 0.2
IC50 [2]: > 160 µM
IC50 (A549 NSCLC cells; Homo sapiens): 32 ± 5 µM
SI (Selectivity Index) (A549 NSCLC cells): >5
IC50 (H1975 NSCLC cells; Homo sapiens, NCI-H1975, 72 h): > 160 µM

SMILES: Nc1ccc(Oc2ccc3oc(-c4ccc(Oc5ccccc5)cc4)cc(=O)c3c2)cc1 [APF-5, 6-(4-aminophenoxy)-2-(4′-phenoxy)phenyl-4H-chromen-4-one]
logP [1]: 3.2 ± 0.3
IC50 [2]: 55 ± 2 µM
IC50 (A549 NSCLC cells; Homo sapiens): 7 ± 3 µM
SI (Selectivity Index) (A549 NSCLC cells): 7
IC50 (H1975 NSCLC cells; Homo sapiens, NCI-H1975, 72 h): 10 ± 5 µM
SI (Selectivity Index) (H1975 NSCLC cells): 5.5

Stronger by IC50 (A549 NSCLC cells; Homo sapiens), values ahead:

logP [1]: 3.2 ± 0.1
IC50 (A549 NSCLC cells): 4.2 ± 0.4 µM
IC50 (A549 NSCLC cells; Homo sapiens): 4 µM
IC50 (H1975 NSCLC cells): 2.3 ± 0.2 µM
IC50 (H1975 NSCLC cells; Homo sapiens, NCI-H1975, 72 h): 2 µM
SMILES: Nc1ccc(Oc2ccc3oc(-c4cccc(Oc5ccccc5)c4)cc(=O)c3c2)cc1 [APF-1]
IC50 [2]: 62 ± 6 µM
SI (Selectivity Index) (A549 NSCLC cells): 16
SI increase compared with doxorubicin (H1975 NSCLC cells; H1975): ~ 4.5 fold
early apoptotic (Annexin V+PI−) cells (H1975 cells [3]; H1975, 1.5 µM, 24 h): 16%
late apoptotic (Annexin V+PI+) cells (H1975 cells [3]; H1975, 1.5 µM, 24 h): 11%
increase of early apoptosis compared to untreated cells (H1975 cells [3]; H1975, 3 µM, 24 h): 2.6 fold
increase of late apoptosis compared to untreated cells (H1975 cells [3]; H1975, 3 µM, 24 h): 6.5 fold
viability at 1.5 µM (H1975 cells [3]; Homo sapiens, NCI-H1975, 24 h, H1975, 1.5 µM, 24 h, read-out: live/viable (Annexin V−PI−) cells): 70.9%
viability at 3 µM (H1975 cells [3]; Homo sapiens, NCI-H1975, 24 h, H1975, 3 µM, 24 h, read-out: live/viable (Annexin V−PI−) cells): 46%
induction of apoptosis (sum of early and late apoptosis) with respect to untreated cells (H1975 cells [3]; cancer cells (H1975), Figure 3D): about 4 times
increase in early apoptosis with respect to untreated cells (A549 cells [4]; A549, 3 µM, 24 h): 2 fold
viability at 1.5 µM (A549 cells [4]; Homo sapiens, A549, 24 h, A549, 1.5 µM, 24 h, read-out: live/viable (Annexin V−PI−) cells): 86%
viability at 3 µM (A549 cells [4]; Homo sapiens, A549, 24 h, A549, 3 µM, 24 h, read-out: live/viable (Annexin V−PI−) cells): 73%
induction of apoptosis (sum of early and late apoptosis) with respect to untreated cells (A549 cells [4]; cancer cells (A549), Figure 3D): about 4 times
viability at 24 h, 1.5 µM ([5]; 1.5 µM): 92%
viability at 24 h, 3 µM ([5]; 3 µM): 86%
effect on the number of late apoptotic cells (HDF cells [6]; HDF, 1.5 and 3 µM, 24 h): did not detect any effect
increase in early apoptosis (HDF cells [6]; HDF, highest APF-1 concentration (3 µM), 24 h): 4.7 fold
induction of apoptosis (sum of early and late apoptosis) compared with cancer cells (HDF cells [6]; fibroblasts, Figure 3D): lower
cells in G0/G1 phase (H1975 cells [7]): 24%
cells in G2/M phase (H1975 cells [7]): 70%
cells in S phase (H1975 cells [7]): 5.6%
increase in G2/M phase population compared to untreated cells (H1975 cells [7]): 2 fold
increase in G2/M phase compared to the untreated cells (A549 cells [8]; A549, 1.5 µM): 2.8 fold
cells in G2/M phase (A549 cells [8]; A549, 3 µM): 75%
effect on cell cycle profile (HDF cells [9]): not affected
increase in p21^waf1/cip1 expression with respect to untreated cells [10]: 1.5 fold
increase in p21 level with respect to untreated cells ([11]; H1975, 1.5 µM): 3 fold
increase in p21 level with respect to untreated cells ([11]; H1975, 3 µM): 3 fold
change in p21 expression [12]: did not observe any significant change

IC50 (A549 NSCLC cells; Homo sapiens): 0.8 ± 0.2 µM
IC50 (H1975 NSCLC cells; Homo sapiens, NCI-H1975, 72 h): 2.5 ± 0.4 µM
SMILES: COc1cccc2c1C(=O)c1c(O)c3c(c(O)c1C2=O)C[C@@](O)(C(=O)CO)C[C@@H]3O[C@H]1C[C@H](N)[C@H](O)[C@H](C)O1 [Doxorubicin, reference compound]
IC50 [2]: 14 ± 4 µM
SI (Selectivity Index) (A549 NSCLC cells): 18
SI (Selectivity Index) (H1975 NSCLC cells): 6
overall response rate (advanced NSCLC): 30–50%
